Data from PMC9705314, “Characterization of a new potent and long-lasting single chain peptide agonist of RXFP1 in cells and in vivo translational models” (Scientific Reports, 2022).
*1 amine or outer side, *2 acyl side, *3 side chain or, on linkers, in order; H or OH if unused. Where a SMILES comes first, the peptide text is derived from it. Side-chain parts run from the residue outwards. [ ]: non-standard residue; d: D form. The star is where a group is joined. γGlu = O=C(O)[C@H](CCC(=O)[*:2])N[*:1]; Stearoyl = CCCCCCCCCCCCCCCCCC(=O)*; Nle = CCCC[C@H](N)C(=O)O; AEEA = NCCOCCOCC(=O)O; Aib = CC(C)(N)C(=O)O

Columns and labels:
[1] = Pharmacokinetics in Sprague-Dawley rats; assay type: in vivo, rat; conditions: for T1/2 (apparent terminal half-life): 1 mg/kg; for CL / AUXext: IV 1 mg/kg
Description: Sprague Dawley rats (10–12 weeks old) obtained from Charles Rivers Laboratories (Como, Iltaly) were dosed with study peptide at 1 mg/kg IV and 3 mg/kg SC as a solution in PBS (0.2 mg/mL and 0.6 mg/mL respectively). Blood samples were collected from individual animals at the following time points: 0.083, 0.25, 0.5, 1, 3, 6, 8, 24, 48 and 72 h (IV route) and 0.25, 0.5, 1, 2, 4, 8, 12, 24, 48 and 72 h (SC route). All samples, collected into K3-EDTA tubes, were centrifuged and plasma was harvested and stored at − 80 °C until analysis. Two hundred μL of 0.1% formic acid in methanol containing 10 ng/mL warfarin as internal standard were added to 50 μL of standard, QC and PK study samples to obtain the protein precipitation. Each sample was vortexed and centrifuged, for 20 min, at 17,000 rcf at 4 °C. Ten microliters of the extracted plasma samples were injected onto the column. Chromatographic separation was performed on an Ultimate 3000 (Thermo Scientific) chromatography system using an XSelect Peptide CSH C18, (50 mm × 2.1 mm I.D., 2.5 μm, 130 Å; Waters Corporation) with a flow rate of 0.500 mL/min at 60 °C and a two-solvent linear gradient system. Solvents A (water) and B (acetonitrile) contained both 0.1% formic acid. […] The Ultimate 3000 was coupled to an Orbitrap QExactive™ mass spectrometer (Thermo Scientific) in positive mode. Quantitation was performed in full scan. The optimized source parameters were as follows: ion spray voltage 2.9 kV, sheath gas flow 50 a.u., aux gas flow 15 a.u., aux T 300 °C, capillary T 320 °C, S-lens RF level 50%. Full MS parameters were as follows: mass range 150–2000, AGC target 1 × 10^6, max injection time 250 ms, resolution 70,000 (FWHM @ 200 m/z). Data processing was performed using Xcalibur 3.0 (Thermo Scientific). Ion current of the [M + 5H]5 + of the SA10SC-RLX was extracted with 5 ppm window for quantitation (814.47219 m/z). A calibration curve with 12 standard points was prepared freshly on the day of analysis by spiking appropriate amounts of an intermediate working standard solution into blank rat plasma and ranged from 1.22 to 20,000 ng/mL (0.30–4910 nM). Three QC samples, each at six concentration levels from 5.0 to 15,000 ng/mL (1.22–3690 nM), were used for all analyses. Calibration curves were prepared by plotting the analyte to internal standard peak area ratio versus concentration. Calibration standards were fit by linear regression with 1/x^2 weighting. QC samples (n = 3) were used at six concentration levels. Accepted calibration curve contained minimum 7 concentration levels within ± 20% of nominal. Accepted QCs were within ± 25% of nominal. PK parameters were calculated by non-compartmental analysis using Watson LIMS 7.5.

[2] = test system: wild type EA.hy926 cells; experiment: xCELLigence real time impedance in wild type EA.hy926 cells; assay type: cell-based, human
Description: (§1) Cell impedance assays in both wild type EA.hy926 and EA.hy926_RXFP1 cell lines were performed using a MP RCTA xCELLigence Analyzer (ACEA Biosciences) on E-Plates. 20,000 cells/well were seeded in E-plates in 200 µL of growth medium and left to settle for 30 min at room temperature. Plates were then placed into the xCELLigence RTCA MP Instrument under 5% CO2 at 37 °C and impedance was continuously measured every 15 min overnight. The next day, a 4-h serum starvation was performed using the same medium but with 0.1% FCS (impedance measurement every 5 min).
(§2) Data analysis was performed using RTCA2.0 software according to ACEA recommendations. Raw impedance expressed as cell index was normalized for each well by dividing individual Cell Index values by baseline Cell index values obtained 5 min before peptide treatment in order to obtain Normalized Cell Index (NCI): mean NCI from 4 replicates for each condition are presented.

[3] = biological target: T1, RXFP1 (Homo sapiens, UniProt Q9HBX9); experiment: xCELLigence real time impedance in EA.hy926_RXFP1 cells; assay type: cell-based; set-up: expressed in transfected cells; host or cells: EA.hy926 (ATCC CRL-2922), lentiviral transduction, puromycin selection; conditions: 10 nM, over 10 h
T1 sequence (Q9HBX9 1-757): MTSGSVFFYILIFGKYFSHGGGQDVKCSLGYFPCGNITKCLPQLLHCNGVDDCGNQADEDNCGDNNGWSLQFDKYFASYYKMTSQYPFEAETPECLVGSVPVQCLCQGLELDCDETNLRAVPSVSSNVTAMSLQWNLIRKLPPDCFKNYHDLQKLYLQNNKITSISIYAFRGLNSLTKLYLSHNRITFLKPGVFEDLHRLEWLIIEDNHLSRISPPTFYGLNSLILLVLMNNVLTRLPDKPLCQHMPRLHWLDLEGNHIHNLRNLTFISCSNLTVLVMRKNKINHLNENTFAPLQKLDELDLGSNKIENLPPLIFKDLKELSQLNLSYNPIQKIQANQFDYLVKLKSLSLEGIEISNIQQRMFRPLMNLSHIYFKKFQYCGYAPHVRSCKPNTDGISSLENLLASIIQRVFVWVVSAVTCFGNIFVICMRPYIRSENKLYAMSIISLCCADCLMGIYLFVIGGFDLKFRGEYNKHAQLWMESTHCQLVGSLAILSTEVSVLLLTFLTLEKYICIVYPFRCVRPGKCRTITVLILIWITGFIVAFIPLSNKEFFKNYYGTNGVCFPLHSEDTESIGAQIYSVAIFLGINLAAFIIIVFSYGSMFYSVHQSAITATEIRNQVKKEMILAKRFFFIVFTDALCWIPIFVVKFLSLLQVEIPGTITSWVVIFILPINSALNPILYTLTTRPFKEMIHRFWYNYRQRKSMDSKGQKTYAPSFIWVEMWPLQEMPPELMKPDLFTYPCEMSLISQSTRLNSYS
Description: as §1, §2

Row | level at time molar at 12 h ([1]; Sprague-Dawley, rat, plasma, rats, SC 3 mg/kg, read-out: plasma concentration after 12 h) | T1/2 (apparent terminal half-life) ([1]; male Sprague-Dawley rats, IV 1 mg/kg in PBS, plasma, LC-HRMS, non-compartmental analysis, mean of n = 3) | T1/2 (apparent terminal half-life) ([1]; male Sprague-Dawley rats, IV 1 mg/kg in PBS, plasma, LC-HRMS, non-compartmental analysis, mean of n = 3, listed as SA10SC_RLX) | CL ([1]; male Sprague-Dawley rats, plasma, LC-HRMS, animal 1) | CL ([1]; male Sprague-Dawley rats, plasma, LC-HRMS, animal 2) | CL ([1]; male Sprague-Dawley rats, plasma, LC-HRMS, animal 3) | AUXext ([1]; male Sprague-Dawley rats, plasma, animal 1) | AUXext ([1]; male Sprague-Dawley rats, plasma, animal 2) | AUXext ([1]; male Sprague-Dawley rats, plasma, animal 3) | Cmax ([1]; male Sprague-Dawley rats, SC 3 mg/kg in PBS, plasma, LC-HRMS, non-compartmental analysis, mean of n = 3) | Tmax ([1]; male Sprague-Dawley rats, SC 3 mg/kg in PBS, plasma, LC-HRMS, mean of n = 3) | F ([1]; male Sprague-Dawley rats, SC 3 mg/kg vs IV 1 mg/kg, mean of n = 3) | AUCext ([1]; male Sprague-Dawley rats, SC 3 mg/kg, plasma, mean of n = 3) | AUC ([1]; rat, male Sprague-Dawley rats, IV 1 mg/kg in PBS, plasma, LC-HRMS, non-compartmental analysis, mean of n = 3) | clearance ([1]; rat, male Sprague-Dawley rats, IV 1 mg/kg in PBS, plasma, LC-HRMS, non-compartmental analysis, mean of n = 3, read-out: CL (plasma clearance)) | C0 ([1]; rat, male Sprague-Dawley rats, IV 1 mg/kg in PBS, plasma, LC-HRMS, non-compartmental analysis, mean of n = 3, read-out: Co) | Vd ([1]; rat, male Sprague-Dawley rats, IV 1 mg/kg in PBS, plasma, LC-HRMS, non-compartmental analysis, mean of n = 3, read-out: Vss) | AUC ([1]; rat, male Sprague-Dawley rats, SC 3 mg/kg in PBS, plasma, LC-HRMS, non-compartmental analysis, mean of n = 3) | kinetics and shape of the RXFP1 activation signal (impedance) [3] | Compound | impedance response [2]
1 | ~1000 nM | 4 h | 3.9 h | 0.48 mL/min/kg | 0.44 mL/min/kg | 0.38 mL/min/kg | 1.01% | 1.01% | 1.02% | 1500 nM | 8 h | 74% | 1.09% | 9.57 µM·h | 0.43 mL/min/kg | 3200 nM | 0.12 L/kg | 21.2 µM·h |  | CCCCCCCCCCCCCCCCCC(=O)N[C@@H](CCC(=O)N[C@@H](CCC(=O)N[C@@H](CCC(=O)NCCOCCOCC(=O)NCCOCCOCC(=O)NCCOCCOCC(=O)NCCCC[C@H](NC(=O)[C@H](CCCCNC(C)=O)NC(=O)[C@H](CCCCN)NC(=O)[C@H](CCCNC(=N)N)NC(=O)C(C)(C)NC(=O)[C@H](CO)NC(=O)[C@H](Cc1c[nH]c2ccccc12)NC(=O)[C@@H](NC(=O)[C@H](CO)NC(=O)[C@H](CCCC)NC(=O)CNC(=O)[C@H](CCC(=O)O)NC(=O)C(C)(C)NC(=O)C(C)(C)NC(=O)[C@@H](NC(=O)[C@H](CCCCNC(C)=O)NC(=O)[C@H](C)NC(=O)[C@H](CCCNC(=N)N)NC(=O)[C@@H](NC(=O)[C@H](CCCCN)NC(=O)[C@H](CCC(=O)O)NC(=O)[C@H](CCCNC(=N)N)NC(=O)CNC(=O)[C@H](CCC(=O)O)NC(=O)[C@H](CC(C)C)NC(C)=O)C(C)C)[C@@H](C)CC)[C@@H](C)O)C(N)=O)C(=O)O)C(=O)O)C(=O)O [SA10SC-RLX] (Ac-LEGREKVRAK(Ac)I[Aib][Aib]EG[Nle]STWS[Aib]RKK(Ac)K([AEEA-AEEA-AEEA-γGlu-γGlu-γGlu-Stearoyl])-NH2) | 
2 |  |  |  |  |  |  |  |  |  |  |  |  |  |  |  |  |  |  | superimposable responses | relaxin | Neither relaxin nor SA10SC-RLX induced a response
